# Patent publication US8759392B2, “Amides as inhibitors of human secreted phospholipase A2” (The Regents of the University of California, priority 2008, dated 2014)
# Tests used:
# secreted PLA2 = conditions: known inhibitors of FIG. 1; cited from earlier work
# human GV sPLA2 = target: T1, human GV sPLA2 (Homo sapiens, UniProt P39877); test: Mixed micelle-based assay, inhibition of GV sPLA2; format: biochemical; conditions: for Inhibition (% at 0.091 mol fraction) sPLA2 GIIA/GV*: 0.091 mole fraction of inhibitor, average and standard error, n = 3
# T1 sequence (P39877 21-138): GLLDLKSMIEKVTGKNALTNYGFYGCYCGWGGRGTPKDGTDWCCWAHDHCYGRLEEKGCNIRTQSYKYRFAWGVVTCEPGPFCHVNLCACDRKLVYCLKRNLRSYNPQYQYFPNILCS
# Method: FIG. 2 illustrates inhibition curve for an amide of the present disclosure in a mixed-micelle assay with human GV sPLA2. The amides were tested for inhibition of human GIVA cPLA2, GVIA iPLA2 and GV sPLA2 using previously described mixed micelle-based assays.
# human GIVA cPLA2 = target: T2, human GIVA cPLA2 (Homo sapiens, UniProt P47712); test: Mixed micelle-based assay, inhibition of GIVA cPLA2; format: biochemical
# T2 sequence (P47712 1-749): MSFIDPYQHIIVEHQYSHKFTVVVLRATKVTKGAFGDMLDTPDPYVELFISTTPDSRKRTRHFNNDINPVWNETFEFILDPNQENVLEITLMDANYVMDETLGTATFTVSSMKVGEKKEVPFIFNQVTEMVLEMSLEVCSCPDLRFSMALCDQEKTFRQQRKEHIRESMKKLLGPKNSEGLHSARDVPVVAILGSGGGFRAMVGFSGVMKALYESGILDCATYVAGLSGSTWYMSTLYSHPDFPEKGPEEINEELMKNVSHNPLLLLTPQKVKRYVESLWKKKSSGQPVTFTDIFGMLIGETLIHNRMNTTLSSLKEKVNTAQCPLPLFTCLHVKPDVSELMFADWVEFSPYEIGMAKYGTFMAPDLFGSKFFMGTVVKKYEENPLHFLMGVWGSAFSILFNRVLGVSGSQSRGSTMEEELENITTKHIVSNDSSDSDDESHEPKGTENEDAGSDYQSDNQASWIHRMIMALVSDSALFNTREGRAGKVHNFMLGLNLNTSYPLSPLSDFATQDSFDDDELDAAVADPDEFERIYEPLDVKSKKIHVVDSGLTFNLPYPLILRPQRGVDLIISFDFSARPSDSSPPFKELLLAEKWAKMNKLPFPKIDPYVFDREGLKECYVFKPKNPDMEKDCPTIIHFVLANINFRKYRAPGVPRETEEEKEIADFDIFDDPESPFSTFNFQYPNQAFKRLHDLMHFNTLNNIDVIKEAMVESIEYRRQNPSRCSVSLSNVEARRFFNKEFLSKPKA
# Method: (§1) The amides were tested for inhibition of human GIVA cPLA2, GVIA iPLA2 and GV sPLA2 using previously described mixed micelle-based assays. The resulting degrees of inhibition are presented as either percent inhibition or XI(50) values. […] The XI(50) is the mole fraction of the inhibitor in the total substrate interface required to inhibit the enzyme by 50%.
# spinal cord injury (SCI) = test: Spinal cord injury (SCI) in mice
# human GVIA iPLA2 = target: T3, human GVIA iPLA2 (Homo sapiens, UniProt O60733); test: Mixed micelle-based assay, inhibition of GVIA iPLA2; format: biochemical
# T3 sequence (O60733 1-806): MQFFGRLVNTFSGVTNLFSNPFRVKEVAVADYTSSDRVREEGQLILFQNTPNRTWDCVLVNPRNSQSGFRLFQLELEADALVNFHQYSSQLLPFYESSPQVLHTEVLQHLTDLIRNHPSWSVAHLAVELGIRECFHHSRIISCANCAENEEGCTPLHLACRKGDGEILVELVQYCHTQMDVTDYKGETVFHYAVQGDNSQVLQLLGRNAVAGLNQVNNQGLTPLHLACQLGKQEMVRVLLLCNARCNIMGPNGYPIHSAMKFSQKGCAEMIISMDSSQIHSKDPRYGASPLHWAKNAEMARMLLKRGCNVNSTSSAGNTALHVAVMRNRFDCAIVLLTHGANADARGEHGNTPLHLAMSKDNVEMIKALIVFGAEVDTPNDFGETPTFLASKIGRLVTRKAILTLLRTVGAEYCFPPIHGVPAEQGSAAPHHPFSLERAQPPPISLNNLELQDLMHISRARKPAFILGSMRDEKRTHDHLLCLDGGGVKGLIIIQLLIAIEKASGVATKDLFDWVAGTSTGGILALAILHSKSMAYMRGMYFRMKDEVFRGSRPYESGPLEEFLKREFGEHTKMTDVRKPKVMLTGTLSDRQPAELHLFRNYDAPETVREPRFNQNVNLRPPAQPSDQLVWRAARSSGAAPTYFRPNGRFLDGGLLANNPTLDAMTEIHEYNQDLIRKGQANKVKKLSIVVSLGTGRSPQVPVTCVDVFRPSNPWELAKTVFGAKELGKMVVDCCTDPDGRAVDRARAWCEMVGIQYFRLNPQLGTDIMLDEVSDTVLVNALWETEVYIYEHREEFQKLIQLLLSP
# Method: as §1
# [1] = 0.091 mole fraction of inhibitor, average and standard error, n = 3
Compound,Inhibition of secreted PLA2 (in words) (secreted PLA2),Activity on GV sPLA2 (in words) (human GV sPLA2),Inhibition (% at 0.091 mol fraction) sPLA2 GIIA/GV* (human GV sPLA2) [%],"XI(50) GV sPLA2 (human GV sPLA2; mole fraction of inhibitor in total substrate interface for 50% inhibition, non-linear regression (hyperbolic)) [mole fraction]",Activity on GIVA cPLA2 (in words) (human GIVA cPLA2),"Myelin sparing (luxol fast blue) (spinal cord injury (SCI); 28 days after SCI, […])","Locomotor function, 9-point Basso Mouse Scale (BMS) score (spinal cord injury (SCI); administration started 1 hour after SCI, vs vehicle treated mice, significant from day 5 dpi through the follow up)",Activity on GVIA iPLA2 (in words) (human GVIA iPLA2),Inhibition (% at 0.091 mol fraction) cPLA2 GIVA (human GIVA cPLA2; [1]),Inhibition (% at 0.091 mol fraction) iPLA2 GVIA (human GVIA iPLA2; [1]) [%],XI(50) iPLA2 GVIA (human GVIA iPLA2; mole fraction of inhibitor in total substrate interface required to inhibit the enzyme by 50%) [mole fraction]
CCC[C@H](CCC(=O)O)NC(=O)CCCCCCc1ccccc1 [Compound 2],potent inhibitor,–,–,–,–,–,–,–,–,–,–
"CCCC[C@H](CCC(=O)O)NC(=O)CCCCCCc1ccccc1 [Compound 9, (R)-4-(7-phenylheptanamido)octanoic acid]",–,potent and selective GV sPLA2 inhibitor,> 95,0.003±0.0004,not affecting at all,significant myelin sparing,improved locomotor function,not affecting at all,–,–,–
"O=C(CCCCc1ccccc1)C(F)(F)C(F)(F)F [FKGK11, reference compound]",–,–,28 ± 1,–,–,–,–,–,N.D. (N.D. signifies compounds with less than 25% inhibition (or no detectable inhibition)),> 95,0.0096 ± 0.0008
